Experimental data from patent US6552196B2, “Quinolone carboxylic acid derivatives” (Dong Wha Pharmaceutical Industrial Co., Ltd., priority 1997, dated 2003).
≈ marks a conversion by molar mass, not a printed value.

What was measured:
Assay type in all cases: cell-based
[1] = system: Pseudomonas aeruginosa 1771M; assay: In vitro antibacterial activity (MIC), agar dilution; settings: Pseudomonas aeruginosa, 1771M, 18 h, read-out: minimum inhibitory concentration (MIC)
Experimental: (§1) 10^7 cfu/ml of bacteria were inoculated and cultured for 18 hours at 37° C. and then the antibacterial activities were measured. For the methicillin resistant strains the activities were measured after 48 hours of cultivation at 30° C. Hoechst Standard strains were used for the testings.

[2] = system: Enterobacter clocae 1321E; assay: as above; settings: 2-fold agar dilution, Muller-Hinton agar, 18 hours at 37° C., read-out: minimum inhibitory concentration (MIC)
Experimental: as §1

Klebsiella oxytoca 1082E = assay: as above; settings: 2-fold agar dilution, Muller-Hinton agar, 18 hours at 37° C., read-out: minimum inhibitory concentration (MIC)
Experimental: as §1

Enterobacter clocae P99 = assay: as above; settings: 2-fold agar dilution, Muller-Hinton agar, 18 hours at 37° C., read-out: minimum inhibitory concentration (MIC)
Experimental: as §1

[3] = system: Klebsiella aerogenes 1522E; assay: as above; settings: 2-fold agar dilution, Muller-Hinton agar, 18 hours at 37° C., read-out: minimum inhibitory concentration (MIC)
Experimental: as §1

[4] = system: Streptococcus pyogens 308A; assay: as above; settings: 2-fold agar dilution, Muller-Hinton agar, 18 hours at 37° C., read-out: minimum inhibitory concentration (MIC)
Experimental: as §1

Esherichia coli DC2 = assay: as above; settings: 2-fold agar dilution, Muller-Hinton agar, 18 hours at 37° C., read-out: minimum inhibitory concentration (MIC)
Experimental: as §1

Esherichia coli TEM = assay: as above; settings: 2-fold agar dilution, Muller-Hinton agar, 18 hours at 37° C., read-out: minimum inhibitory concentration (MIC)
Experimental: as §1

Esherichia coli 078 = assay: as above; settings: 2-fold agar dilution, Muller-Hinton agar, 18 hours at 37° C., read-out: minimum inhibitory concentration (MIC)
Experimental: as §1

[5] = system: Staphylococcus aureus 285; assay: as above; settings: 2-fold agar dilution, Muller-Hinton agar, 18 hours at 37° C., read-out: minimum inhibitory concentration (MIC)
Experimental: as §1

[6] = system: Staphylococcus aureus 503; assay: as above; settings: 2-fold agar dilution, Muller-Hinton agar, 18 hours at 37° C., read-out: minimum inhibitory concentration (MIC)
Experimental: as §1

[7] = system: Pseudomonas aeruginosa 1771; assay: as above; settings: 2-fold agar dilution, Muller-Hinton agar, 18 hours at 37° C., read-out: minimum inhibitory concentration (MIC)
Experimental: as §1

[8] = system: Pseudomonas aeruginosa 1592E; assay: as above; settings: 2-fold agar dilution, Muller-Hinton agar, 18 hours at 37° C., read-out: minimum inhibitory concentration (MIC)
Experimental: as §1

[9] = system: Streptococcus faecium MD 8b; assay: as above; settings: Enterococcus faecium, MD8B, 2-fold agar dilution, Muller-Hinton agar, 18 hours at 37° C., read-out: minimum inhibitory concentration (MIC)
Experimental: as §1

Esherichia coli DC0 = assay: as above; settings: 2-fold agar dilution, Muller-Hinton agar, 18 hours at 37° C., read-out: minimum inhibitory concentration (MIC)
Experimental: as §1

Salmonella typhimurium = assay: as above; settings: Salmonella enterica, 2-fold agar dilution, Muller-Hinton agar, 18 hours at 37° C., read-out: minimum inhibitory concentration (MIC)
Experimental: as §1

[10] = system: Pseudomonas aeruginosa 9027; assay: as above; settings: 2-fold agar dilution, Muller-Hinton agar, 18 hours at 37° C., read-out: minimum inhibitory concentration (MIC)
Experimental: as §1

Esherichia coli 1507E = assay: as above; settings: 2-fold agar dilution, Muller-Hinton agar, 18 hours at 37° C., read-out: minimum inhibitory concentration (MIC)
Experimental: as §1

[11] = system: Staphylococcus aureus SG511; assay: as above; settings: 2-fold agar dilution, Muller-Hinton agar, 18 hours at 37° C., read-out: minimum inhibitory concentration (MIC)
Experimental: as §1

[12] = system: Streptococcus pyogens 77A; assay: as above; settings: 2-fold agar dilution, Muller-Hinton agar, 18 hours at 37° C., read-out: minimum inhibitory concentration (MIC)
Experimental: as §1

[13] = system: Staphylococcus aureus 256E; assay: In vitro antibacterial activity against resistant strains (MIC); settings: resistant strain Staphylococcus aureus 256E; 2-fold agar dilution; methicillin resistant strains 48 hours at 30° C.; read-out: minimum inhibitory concentration (MIC)
Experimental: as §1

[14] = system: Staphylococcus aureus 697E; assay: as above; settings: resistant strain Staphylococcus aureus 697E; 2-fold agar dilution; methicillin resistant strains 48 hours at 30° C.; read-out: minimum inhibitory concentration (MIC)
Experimental: as §1

[15] = system: Staphylococcus aureus 241; assay: as above; settings: resistant strain Staphylococcus aureus 241; 2-fold agar dilution; methicillin resistant strains 48 hours at 30° C.; read-out: minimum inhibitory concentration (MIC)
Experimental: as §1

[16] = system: Staphylococcus aureus 701E; assay: as above; settings: resistant strain Staphylococcus aureus 701E; 2-fold agar dilution; methicillin resistant strains 48 hours at 30° C.; read-out: minimum inhibitory concentration (MIC)
Experimental: as §1

[17] = system: Staphylococcus aureus 303; assay: as above; settings: resistant strain Staphylococcus aureus 303; 2-fold agar dilution; methicillin resistant strains 48 hours at 30° C.; read-out: minimum inhibitory concentration (MIC)
Experimental: as §1

[18] = system: Staphylococcus aureus 703E; assay: as above; settings: resistant strain Staphylococcus aureus 703E; 2-fold agar dilution; methicillin resistant strains 48 hours at 30° C.; read-out: minimum inhibitory concentration (MIC)
Experimental: as §1

[19] = system: Staphylococcus epidermidis 178; assay: as above; settings: resistant strain Staphylococcus epidermidis 178; 2-fold agar dilution; methicillin resistant strains 48 hours at 30° C.; read-out: minimum inhibitory concentration (MIC)
Experimental: as §1

[20] = system: Staphylococcus epidermidis 291; assay: as above; settings: resistant strain Staphylococcus epidermidis 291; 2-fold agar dilution; methicillin resistant strains 48 hours at 30° C.; read-out: minimum inhibitory concentration (MIC)
Experimental: as §1

[21] = system: Staphylococcus aureus 693E; assay: as above; settings: resistant strain Staphylococcus aureus 693E; 2-fold agar dilution; methicillin resistant strains 48 hours at 30° C.; read-out: minimum inhibitory concentration (MIC)
Experimental: as §1

[22] = system: Staphylococcus aureus 692E; assay: as above; settings: resistant strain Staphylococcus aureus 692E; 2-fold agar dilution; methicillin resistant strains 48 hours at 30° C.; read-out: minimum inhibitory concentration (MIC)
Experimental: as §1

[23] = system: Staphylococcus aureus 694E; assay: as above; settings: resistant strain Staphylococcus aureus 694E; 2-fold agar dilution; methicillin resistant strains 48 hours at 30° C.; read-out: minimum inhibitory concentration (MIC)
Experimental: as §1

[24] = system: Staphylococcus aureus 179; assay: as above; settings: resistant strain Staphylococcus aureus 179; 2-fold agar dilution; methicillin resistant strains 48 hours at 30° C.; read-out: minimum inhibitory concentration (MIC)
Experimental: as §1

[25] = system: Staphylococcus aureus 208E; assay: as above; settings: resistant strain Staphylococcus aureus 208E; 2-fold agar dilution; methicillin resistant strains 48 hours at 30° C.; read-out: minimum inhibitory concentration (MIC)
Experimental: as §1

[26] = system: Staphylococcus aureus 695E; assay: as above; settings: resistant strain Staphylococcus aureus 695E; 2-fold agar dilution; methicillin resistant strains 48 hours at 30° C.; read-out: minimum inhibitory concentration (MIC)
Experimental: as §1

[27] = system: Staphylococcus aureus 293; assay: as above; settings: resistant strain Staphylococcus aureus 293; 2-fold agar dilution; methicillin resistant strains 48 hours at 30° C.; read-out: minimum inhibitory concentration (MIC)
Experimental: as §1

[28] = system: Staphylococcus aureus 88E; assay: as above; settings: resistant strain Staphylococcus aureus 88E; 2-fold agar dilution; methicillin resistant strains 48 hours at 30° C.; read-out: minimum inhibitory concentration (MIC)
Experimental: as §1

[29] = system: Staphylococcus aureus 121E; assay: as above; settings: resistant strain Staphylococcus aureus 121E; 2-fold agar dilution; methicillin resistant strains 48 hours at 30° C.; read-out: minimum inhibitory concentration (MIC)
Experimental: as §1

[30] = system: Staphylococcus aureus 690E; assay: as above; settings: resistant strain Staphylococcus aureus 690E; 2-fold agar dilution; methicillin resistant strains 48 hours at 30° C.; read-out: minimum inhibitory concentration (MIC)
Experimental: as §1

[31] = system: Staphylococcus aureus 8236; assay: as above; settings: resistant strain Staphylococcus aureus 8236; 2-fold agar dilution; methicillin resistant strains 48 hours at 30° C.; read-out: minimum inhibitory concentration (MIC)
Experimental: as §1

Row | SMILES | MIC [1] [µg/mL] | MIC [2] [µg/mL] | MIC (Klebsiella oxytoca 1082E) [µg/mL] | MIC (Enterobacter clocae P99) [µg/mL] | MIC [3] [µg/mL] | MIC [4] [µg/mL] | MIC (Esherichia coli DC2) [µg/mL] | MIC (Esherichia coli TEM) [µg/mL] | MIC (Esherichia coli 078) [µg/mL] | MIC [5] [µg/mL] | MIC [6] [µg/mL] | MIC [7] [µg/mL] | MIC [8] [µg/mL] | MIC [9] [µg/mL] | MIC (Esherichia coli DC0) [µg/mL] | MIC (Salmonella typhimurium) [µg/mL] | MIC [10] [µg/mL] | MIC (Esherichia coli 1507E) [µg/mL] | MIC [11] [µg/mL] | MIC [12] [µg/mL] | further results
1 | CON=C1CN(c2cc3c(cc2F)c(=O)c(C(=O)O)cn3C2CC2)CC12CNC2.CS(=O)(=O)O [Example 2, 1-Cyclopropyl-6-fluoro-7-[8-(methoxyimino)-2,6-diazaspiro[3,4]oct-6-yl]-4-oxo-1,4-dihydro-3-quinolinecarboxylic acid methane sulfonate] | 0.391 | 0.025 | 0.007 | 0.049 | 0.098 | 0.195 | 0.013 | 0.049 | 0.025 | 0.049 | 0.049 | 0.391 | 0.391 | 0.098 | 0.198 | 0.025 | 0.781 | 0.049 | 0.013 | 0.007 | 
2 | CON=C1CN(c2c(F)cc3c(=O)c(C(=O)O)cn(C4CC4)c3c2F)CC12CNC2 [Example 3, 1-Cyclopropyl-6,8-difluoro-7-[8-(methoxyimino)-2,6-diazaspiro[3,4]oct-6-yl]-4-oxo-1,4-dihydro-3-quinolinecarboxylic acid] | 0.781 (≈ 1.87 µM) | 0.025 (≈ 0.0598 µM) | 0.007 (≈ 0.0167 µM) | 0.049 (≈ 0.117 µM) | 0.098 (≈ 0.234 µM) | 0.391 (≈ 0.935 µM) | 0.025 (≈ 0.0598 µM) | 0.049 (≈ 0.117 µM) | 0.098 (≈ 0.234 µM) | 0.049 (≈ 0.117 µM) | 0.098 (≈ 0.234 µM) | 1.56 (≈ 3.74 µM) | 0.781 (≈ 1.87 µM) | 0.098 (≈ 0.234 µM) | 0.391 (≈ 0.935 µM) | 0.025 (≈ 0.0598 µM) | 1.56 (≈ 3.74 µM) | 0.049 (≈ 0.117 µM) | 0.025 (≈ 0.0598 µM) | 0.025 (≈ 0.0598 µM) | 
3 | CON=C1CN(c2cc3c(cc2F)c(=O)c(C(=O)O)cn3-c2ccc(F)cc2F)CC12CNC2.CS(=O)(=O)O.CS(=O)(=O)O [Example 6, 1-(2,4-Difluorophenyl)-6-fluoro-7-[8-(methoxyimino)-2,6-diazaspiro[3,4]oct-6-yl]-4-oxo-1,4-dihydro-3-quinolinecarboxylic acid dimethanesulfonate] | 1.56 | 0.098 | 0.013 | 0.098 | 0.391 | 0.195 | 0.098 | 0.195 | 0.049 | 0.098 | 0.049 | 1.56 | 1.56 | 0.195 | 0.781 | 0.049 | 3.12 | 0.195 | 0.049 | 0.013 | 
4 | C[C@@H]1CN(c2c(F)c(N)c3c(=O)c(C(=O)O)cn(C4CC4)c3c2F)C[C@H](C)N1 [Sparfloxacin, sparfloxacin, reference compound] | 0.195 (≈ 0.497 µM) | 0.004 (≈ 0.0102 µM) | < 0.002 | 0.007 (≈ 0.0178 µM) | 0.025 (≈ 0.0637 µM) | 0.391 (≈ 0.996 µM) |  | 0.013 (≈ 0.0331 µM) | 0.004 (≈ 0.0102 µM) | 0.049 (≈ 0.125 µM) | 0.049 (≈ 0.125 µM) | 0.781 (≈ 1.99 µM) | 0.781 (≈ 1.99 µM) | 0.391 (≈ 0.996 µM) | 0.195 (≈ 0.497 µM) | 0.007 (≈ 0.0178 µM) | 0.781 (≈ 1.99 µM) | 0.025 (≈ 0.0637 µM) | 0.098 (≈ 0.25 µM) | 0.195 (≈ 0.497 µM) | MIC [13]: 0.098 µg/mL (≈ 0.25 µM); MIC [14]: 0.049 µg/mL (≈ 0.125 µM); MIC [15]: 6.25 µg/mL (≈ 15.9 µM); MIC [16]: 0.098 µg/mL (≈ 0.25 µM); MIC [17]: 3.12 µg/mL (≈ 7.96 µM); MIC [18]: 0.098 µg/mL (≈ 0.25 µM); MIC [19]: 6.25 µg/mL (≈ 15.9 µM); MIC [20]: 6.25 µg/mL (≈ 15.9 µM); MIC [21]: 0.049 µg/mL (≈ 0.125 µM); MIC [22]: 0.049 µg/mL (≈ 0.125 µM); MIC [23]: 0.098 µg/mL (≈ 0.25 µM); MIC [24]: 6.25 µg/mL (≈ 15.9 µM); MIC [25]: 0.098 µg/mL (≈ 0.25 µM); MIC [26]: 0.049 µg/mL (≈ 0.125 µM); MIC [27]: 6.25 µg/mL (≈ 15.9 µM); MIC [28]: 0.098 µg/mL (≈ 0.25 µM); MIC [29]: 0.098 µg/mL (≈ 0.25 µM); MIC [30]: 0.049 µg/mL (≈ 0.125 µM); MIC [31]: 6.25 µg/mL (≈ 15.9 µM)
